From patent publication US10947242B2, “[1,2,4]triazolo[1,5and#8208;A]pyrimidine compounds as PDE2 inhibitors” (Janssen Pharmaceutica NV, priority 2016, dated 2021)
Like-named read-outs stand apart in the source and are kept apart here.

Tests used:
[1] = biological target: T1, Human recombinant PDE2A (hPDE2A) (Homo sapiens, UniProt O00408); assay: In vitro assay PDE2A (SPA, 3H-cGMP hydrolysis); assay type: biochemical; conditions: for IC50: read-out: hPDE2A pIC50 (converted); for Emax: read-out: hPDE2A Emax
T1 construct: His tag (inferred from metal chelate purification); made in house; host or cells: Sf9 insect cells (baculovirus)

[2] = biological target: T2, Human recombinant PDE3A (hPDE3A) (Homo sapiens, UniProt Q14432); assay: In vitro assay PDE3A (SPA, 3H-cAMP hydrolysis); assay type: biochemical; conditions: for IC50: hPDE3B pIC50, read-out: pIC50 (converted); for Emax: read-out: hPDE3B Emax, read-out: Emax;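 as to all read-outs here: the method names PDE3A and the table heading PDE3B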
T2 construct: purchased Scottish Biomedical; host or cells: Sf9 insect cells
Summary of the method: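 Radiometric SPA measuring [3H]-cAMP hydrolysis (0.4 μM cAMP, 2.4 μCi/ml) over 60 min at room temperature, in Tris pH 7.8 buffer with MgCl2 and EGTA, 1% DMSO. Enzyme: recombinant human brain PDE3A expressed in Sf9 cells, used as partially purified lysate. Counts compared with enzyme-free blanks and vehicle controls.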

[3] = biological target: T3, Human recombinant PDE10A (hPDE10A) (Homo sapiens, UniProt Q9Y233); assay: In vitro assay PDE10A, human clone (SPA, 3H-cAMP hydrolysis); assay type: biochemical; conditions: human clone (h), default; for Emax: read-out: hPDE10A2 Emax; for IC50: read-out: hPDE10A2 pIC50 (converted)
T3 construct: His tag (inferred from metal chelate purification); made in house; host or cells: Sf9 insect cells (baculovirus)
Summary of the method: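 Hydrolysis of 3H-cAMP (60 nM cAMP, 0.008 μCi tracer) proceeded for 60 min at room temperature, with the product detected by SPA bead scintillation counting. The enzyme was hPDE10A from baculovirus-infected Sf9 cells in Tris pH 7.8 buffer with MgCl2 and EGTA, and compounds were at 1% DMSO final. Blanks lacked enzyme.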

PDE2A = biological target: T4, PDE2A (Rattus norvegicus, UniProt Q01062); assay: PDE2 occupancy by test compounds, ex-vivo autoradiography with [3H]B-17a; assay type: in vivo, Male Wistar rats; conditions: for receptor occupancy at 10 mg/kg: percentage receptor occupancy, ex-vivo autoradiography, striatum; for ED50: read-out: PDE Occupancy ED50
T4 construct: Twenty μm-thick striatal sections were cut; from tissue; host or cells: rat brain, striatal sections
T4 sequence (Q01062 1-928): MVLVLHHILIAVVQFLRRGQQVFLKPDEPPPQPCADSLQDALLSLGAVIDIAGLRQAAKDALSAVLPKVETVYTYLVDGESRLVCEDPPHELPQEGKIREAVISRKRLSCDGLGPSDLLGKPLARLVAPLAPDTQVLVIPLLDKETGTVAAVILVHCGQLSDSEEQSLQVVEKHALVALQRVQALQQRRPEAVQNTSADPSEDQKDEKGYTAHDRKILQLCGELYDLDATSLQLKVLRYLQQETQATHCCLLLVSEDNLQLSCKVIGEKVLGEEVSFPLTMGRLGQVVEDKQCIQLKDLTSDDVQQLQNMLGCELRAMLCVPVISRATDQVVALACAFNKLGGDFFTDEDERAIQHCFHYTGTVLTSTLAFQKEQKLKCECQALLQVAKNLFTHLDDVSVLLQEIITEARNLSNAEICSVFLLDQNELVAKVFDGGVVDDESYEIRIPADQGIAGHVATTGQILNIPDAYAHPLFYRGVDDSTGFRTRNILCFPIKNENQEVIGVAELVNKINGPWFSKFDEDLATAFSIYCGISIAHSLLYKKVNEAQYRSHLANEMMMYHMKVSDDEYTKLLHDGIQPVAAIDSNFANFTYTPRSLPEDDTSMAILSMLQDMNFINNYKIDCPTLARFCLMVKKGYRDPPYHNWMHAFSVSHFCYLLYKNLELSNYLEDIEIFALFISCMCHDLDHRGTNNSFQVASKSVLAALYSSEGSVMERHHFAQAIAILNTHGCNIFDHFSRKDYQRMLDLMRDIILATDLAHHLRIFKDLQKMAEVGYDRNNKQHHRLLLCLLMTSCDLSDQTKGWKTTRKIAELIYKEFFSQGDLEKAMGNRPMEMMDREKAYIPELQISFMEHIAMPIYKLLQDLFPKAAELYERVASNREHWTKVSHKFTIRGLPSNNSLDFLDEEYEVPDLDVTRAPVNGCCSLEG

[4] = human recombinant PDE2A, 10 μM cGMP substrate

T3 sequence (Q9Y233 267-1055): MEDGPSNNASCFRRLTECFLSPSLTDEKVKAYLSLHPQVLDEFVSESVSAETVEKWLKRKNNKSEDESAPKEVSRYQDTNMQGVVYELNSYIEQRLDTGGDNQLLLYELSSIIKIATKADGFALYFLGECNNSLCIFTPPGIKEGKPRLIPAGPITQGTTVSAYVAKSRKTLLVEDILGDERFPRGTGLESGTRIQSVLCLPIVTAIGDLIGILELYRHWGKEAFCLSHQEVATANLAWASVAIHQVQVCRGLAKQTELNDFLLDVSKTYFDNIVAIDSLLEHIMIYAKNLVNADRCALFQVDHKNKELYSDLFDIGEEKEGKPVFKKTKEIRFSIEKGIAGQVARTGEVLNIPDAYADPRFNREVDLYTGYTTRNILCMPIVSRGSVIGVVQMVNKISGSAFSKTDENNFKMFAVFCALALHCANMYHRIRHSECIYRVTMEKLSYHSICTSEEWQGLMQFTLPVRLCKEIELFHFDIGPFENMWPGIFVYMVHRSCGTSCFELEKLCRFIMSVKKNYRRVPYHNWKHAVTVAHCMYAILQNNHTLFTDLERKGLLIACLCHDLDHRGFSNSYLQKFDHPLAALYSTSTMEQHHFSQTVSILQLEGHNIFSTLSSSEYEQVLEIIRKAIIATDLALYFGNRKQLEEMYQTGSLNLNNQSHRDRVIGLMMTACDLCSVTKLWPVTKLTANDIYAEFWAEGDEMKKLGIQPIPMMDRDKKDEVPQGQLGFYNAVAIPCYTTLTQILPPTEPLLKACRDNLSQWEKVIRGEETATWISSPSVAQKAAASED
T2 sequence (Q14432 whole entry): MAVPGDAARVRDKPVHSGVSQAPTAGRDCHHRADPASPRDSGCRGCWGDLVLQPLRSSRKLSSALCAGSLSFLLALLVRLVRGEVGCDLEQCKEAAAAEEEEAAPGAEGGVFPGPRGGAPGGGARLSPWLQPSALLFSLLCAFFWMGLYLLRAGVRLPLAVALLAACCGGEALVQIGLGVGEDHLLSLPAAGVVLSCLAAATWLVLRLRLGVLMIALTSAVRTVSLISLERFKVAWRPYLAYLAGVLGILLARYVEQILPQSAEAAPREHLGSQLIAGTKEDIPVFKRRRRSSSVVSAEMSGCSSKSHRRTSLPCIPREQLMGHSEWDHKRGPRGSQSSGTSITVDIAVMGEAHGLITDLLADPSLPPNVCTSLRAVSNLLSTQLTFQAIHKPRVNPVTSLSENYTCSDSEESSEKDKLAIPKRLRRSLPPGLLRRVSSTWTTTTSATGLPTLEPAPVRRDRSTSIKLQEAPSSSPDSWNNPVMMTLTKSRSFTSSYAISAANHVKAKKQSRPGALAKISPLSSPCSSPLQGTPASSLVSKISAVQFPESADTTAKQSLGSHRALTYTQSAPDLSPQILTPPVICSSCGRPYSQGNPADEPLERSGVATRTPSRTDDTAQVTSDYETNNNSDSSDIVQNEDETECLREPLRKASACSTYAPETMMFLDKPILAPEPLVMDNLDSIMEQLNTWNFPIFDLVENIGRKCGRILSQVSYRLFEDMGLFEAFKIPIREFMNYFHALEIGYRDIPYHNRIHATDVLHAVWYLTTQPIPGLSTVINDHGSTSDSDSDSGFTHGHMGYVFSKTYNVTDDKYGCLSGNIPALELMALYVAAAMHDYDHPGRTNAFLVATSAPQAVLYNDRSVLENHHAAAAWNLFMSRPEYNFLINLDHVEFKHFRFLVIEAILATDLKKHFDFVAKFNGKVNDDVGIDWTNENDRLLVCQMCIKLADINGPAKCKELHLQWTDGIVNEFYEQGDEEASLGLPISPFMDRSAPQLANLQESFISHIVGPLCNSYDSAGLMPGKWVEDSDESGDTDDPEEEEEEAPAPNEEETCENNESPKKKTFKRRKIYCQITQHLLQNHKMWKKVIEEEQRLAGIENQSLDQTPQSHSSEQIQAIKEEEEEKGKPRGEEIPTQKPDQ
T1 sequence (O00408 whole entry): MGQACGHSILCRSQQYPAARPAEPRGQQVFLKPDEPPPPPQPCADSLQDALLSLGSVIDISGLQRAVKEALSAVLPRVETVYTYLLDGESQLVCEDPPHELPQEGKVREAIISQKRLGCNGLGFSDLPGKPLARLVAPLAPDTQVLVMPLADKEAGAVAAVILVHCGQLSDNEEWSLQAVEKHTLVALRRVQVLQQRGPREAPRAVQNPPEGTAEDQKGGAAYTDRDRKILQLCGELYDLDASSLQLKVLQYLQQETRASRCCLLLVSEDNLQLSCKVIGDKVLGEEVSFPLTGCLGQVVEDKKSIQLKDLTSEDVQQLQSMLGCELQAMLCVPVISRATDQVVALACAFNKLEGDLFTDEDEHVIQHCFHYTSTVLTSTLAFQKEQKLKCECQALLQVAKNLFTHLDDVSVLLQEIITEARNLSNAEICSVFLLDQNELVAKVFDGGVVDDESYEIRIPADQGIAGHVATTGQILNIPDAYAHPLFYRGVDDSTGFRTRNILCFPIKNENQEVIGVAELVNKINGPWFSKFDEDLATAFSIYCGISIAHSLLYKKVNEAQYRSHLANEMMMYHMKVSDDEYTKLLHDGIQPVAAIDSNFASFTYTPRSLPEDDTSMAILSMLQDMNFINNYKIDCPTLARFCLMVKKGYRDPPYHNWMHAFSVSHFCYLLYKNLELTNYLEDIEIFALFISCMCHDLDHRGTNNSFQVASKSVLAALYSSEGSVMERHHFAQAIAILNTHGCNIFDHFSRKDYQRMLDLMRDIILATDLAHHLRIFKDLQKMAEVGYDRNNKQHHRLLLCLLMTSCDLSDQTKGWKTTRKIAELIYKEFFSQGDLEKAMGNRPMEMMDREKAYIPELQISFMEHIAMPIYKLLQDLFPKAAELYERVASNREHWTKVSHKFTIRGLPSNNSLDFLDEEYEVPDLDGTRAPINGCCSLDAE

Compound | IC50 [1, 4] [nM] | Emax ([1]; human recombinant PDE2A) [%] | Emax [1] [%] | IC50 [1] [nM] | IC50 [2] [µM] | Emax [2] [%] | Emax [3] [%] | IC50 [3] [nM] | receptor occupancy at 10 mg/kg (PDE2A; route SC (subcutaneous)) [%] | ED50 (PDE2A; po) [mg/kg] | receptor occupancy at 10 mg/kg (PDE2A; po, route PO (oral)) [%] | ED50 (PDE2A; route PO (oral), drug dose producing 50% receptor occupancy) [mg/kg] | receptor occupancy at 10 mg/kg (PDE2A; sc, route SC (subcutaneous)) [%]
Cc1cc(C(=O)N2C3CCC2[C@@H](c2cc(C(F)F)nc4ncnn24)CC3)cc(C2CC2)n1 (stereo partly drawn) [Compound 28] | 0.955 | 101 | 101 | 0.955 | > 10 | 17 | 95 | 447 | 49 | 25 | – | – | –
Cc1cc(C(=O)N2[C@H]3CC[C@@H]2[C@H](c2cc(C(F)F)nc4ncnn24)CC3)cc(C)n1 [Compound 30] | 3550 | 77 | 77 | 3550 | > 10 | 8 | 32 | > 10000 | 0 | – | – | – | –
Cc1cc(C(=O)N2CC[C@@H](C)[C@H](c3cc(C(F)F)nc4ncnn34)C2)c(C)cn1 [Compound 32] | 3.47 | 100 | 100 | 3.47 | > 10 | 31 | 81 | 1450 | – | – | -6 | – | –
C[C@@H]1CCN(C(=O)c2ccc3ncsc3c2)C[C@@]1(F)c1cc(C(F)F)nc2ncnn12 [Compound 33] | 14.8 | 99 | 99 | 14.8 | > 10 | 25 | 67 | 6170 | – | – | -7 | – | –
COc1cc(C(=O)N2CC[C@@H](C)[C@H](c3cc(C(F)F)nc4ncnn34)C2)c(F)cn1 [Compound 36] | – | – | 100 | 2.75 | 3.98 | 64 | 93 | 468 | – | – | 32 | 45.2 | –
COc1cc(C(=O)N2CC[C@@H](C)[C@H](c3cc(C)nc4ncnn34)C2)c(C(F)(F)F)cn1 [Compound 37] | – | – | 100 | 17.4 | 8.91 | 52 | 93 | 427 | – | – | -13 | – | –
COc1nc(N)ncc1C(=O)N1CC[C@@H](C)[C@H](c2cc(C(F)F)nc3ncnn23)C1 [Compound 38] | 6.17 | 100 | 100 | 6.17 | > 10 | 43 | 80 | 2290 | – | – | 1 | – | –
C[C@@H]1CCN(C(=O)c2cc(Cl)cnc2C(F)(F)F)C[C@H]1c1cc(C(F)F)nc2ncnn12 [Compound 39] | 8.32 | 98 | 98 | 8.32 | > 10 | 16 | 75 | 3090 | – | – | -8 | – | –
Cc1cc(C(=O)N2CC[C@@H](C)[C@H](c3cc(C(F)F)nc4ncnn34)C2)c(C(F)(F)F)cn1 [Compound 41] | 13.8 | 99 | 99 | 13.8 | > 10 | 17 | 72 | 4170 | – | – | 8 | – | –
C[C@@H]1CCN(C(=O)c2ccnc(Cl)c2)C[C@H]1c1cc(C(F)F)nc2ncnn12 [Compound 42] | 1.15 | 100 | 100 | 1.15 | > 10 | 48 | 95 | 316 | – | – | 54 | – | –
C[C@@H]1CCN(C(=O)c2cc(Cl)ncc2Cl)C[C@H]1c1cc(C(F)F)nc2ncnn12 [Compound 43] | 5.01 | 99 | 99 | 5.01 | > 10 | 29 | 88 | 1320 | – | – | 2 | – | –
C[C@@H]1CCN(C(=O)c2nc3ccccc3o2)C[C@H]1c1cc(C(F)F)nc2ncnn12 [Compound 47] | 2.51 | 99 | 99 | 2.51 | 3.39 | 80 | 92 | 646 | – | – | 5 | – | –
Cc1c(C(=O)N2CC[C@@H](C)[C@H](c3cc(C(F)F)nc4ncnn34)C2)oc2ccccc12 [Compound 48] | 0.174 | 100 | 100 | 0.174 | 0.0871 | 99 | 100 | 43.7 | – | – | – | – | 96
Cc1nc2cccc(C(=O)N3CC[C@@H](C)[C@H](c4cc(C(F)F)nc5ncnn45)C3)c2o1 [Compound 50] | 3.09 | 100 | 100 | 3.09 | > 10 | 61 | 93 | 724 | – | – | -30 | – | –
Cc1cc(C(=O)N2CC[C@@H](C)[C@H](c3cc(C(F)F)nc4ncnn34)C2)c(Cl)cn1 [Compound 51] | 5.5 | 101 | 101 | 5.5 | > 10 | 44 | 86 | 1260 | – | – | 20 | – | –
COc1cc(C(=O)N2CC[C@@H](C)[C@H](c3cc(C(F)F)nc4ncnn34)C2)c(C)cn1 [Compound 53] | 5.62 | 100 | 100 | 5.62 | 6.76 | 62 | 89 | 776 | – | – | 22 | – | –
C[C@@H]1CCN(C(=O)c2cc(Cl)ncc2F)C[C@H]1c1cc(C(F)F)nc2ncnn12 [Compound 54] | 4.17 | 100 | 100 | 4.17 | 9.55 | 51 | 89 | 661 | – | – | 39 | – | –
Cc1ccc2cc(C(=O)N3CC[C@@H](C)[C@H](c4cc(C(F)F)nc5ncnn45)C3)c(C)nc2c1 [Compound 60] | 0.851 | 100 | 100 | 0.851 | 1.1 | 92 | 97 | 151 | – | – | 32 | – | –
C[C@@H]1CCN(C(=O)c2cnc(Cl)c(Cl)c2)C[C@H]1c1cc(C(F)F)nc2ncnn12 [Compound 64] | 1.58 | 99 | 99 | 1.58 | 6.76 | 62 | 96 | 355 | – | – | 7 | – | –
COc1ccc(C(=O)N2CC[C@@H](C)[C@H](c3cc(C(F)F)nc4ncnn34)C2)nc1 [Compound 66] | 17.4 | 99 | 99 | 17.4 | > 10 | 48 | 79 | 2290 | – | – | -14 | – | –
Cc1nccc(C(=O)N2CC[C@@H](C)[C@H](c3cc(C(F)F)nc4ncnn34)C2)c1F [Compound 68] | 6.31 | 99 | 99 | 6.31 | – | 50 | 85 | 1380 | – | – | – | – | 31
